Consider one compound from patent publication EP3263567A1, “CARBOXAMIDE-SUBSTITUTED PYRAZOLES AND TRI(HETERO)ARYL-PYRAZOLES FOR USE IN METHODS OF TREATING AND / OR PREVENTING CARDIOVASCULAR DISEASES AND / OR COMORBIDITIES THEREOF” (AiCuris Anti-infective Cures GmbH, priority 2016, dated 2018).

This experiment deals with T1, human HCN4 currents (Homo sapiens, UniProt Q9Y3Q4).
T1 construct: CHO cells transiently expressing the HCN4 channel; expressed in transfected cells; host or cells: CHO (ATCC CCL-61), transiently transfected
T1 sequence (Q9Y3Q4 1-1203): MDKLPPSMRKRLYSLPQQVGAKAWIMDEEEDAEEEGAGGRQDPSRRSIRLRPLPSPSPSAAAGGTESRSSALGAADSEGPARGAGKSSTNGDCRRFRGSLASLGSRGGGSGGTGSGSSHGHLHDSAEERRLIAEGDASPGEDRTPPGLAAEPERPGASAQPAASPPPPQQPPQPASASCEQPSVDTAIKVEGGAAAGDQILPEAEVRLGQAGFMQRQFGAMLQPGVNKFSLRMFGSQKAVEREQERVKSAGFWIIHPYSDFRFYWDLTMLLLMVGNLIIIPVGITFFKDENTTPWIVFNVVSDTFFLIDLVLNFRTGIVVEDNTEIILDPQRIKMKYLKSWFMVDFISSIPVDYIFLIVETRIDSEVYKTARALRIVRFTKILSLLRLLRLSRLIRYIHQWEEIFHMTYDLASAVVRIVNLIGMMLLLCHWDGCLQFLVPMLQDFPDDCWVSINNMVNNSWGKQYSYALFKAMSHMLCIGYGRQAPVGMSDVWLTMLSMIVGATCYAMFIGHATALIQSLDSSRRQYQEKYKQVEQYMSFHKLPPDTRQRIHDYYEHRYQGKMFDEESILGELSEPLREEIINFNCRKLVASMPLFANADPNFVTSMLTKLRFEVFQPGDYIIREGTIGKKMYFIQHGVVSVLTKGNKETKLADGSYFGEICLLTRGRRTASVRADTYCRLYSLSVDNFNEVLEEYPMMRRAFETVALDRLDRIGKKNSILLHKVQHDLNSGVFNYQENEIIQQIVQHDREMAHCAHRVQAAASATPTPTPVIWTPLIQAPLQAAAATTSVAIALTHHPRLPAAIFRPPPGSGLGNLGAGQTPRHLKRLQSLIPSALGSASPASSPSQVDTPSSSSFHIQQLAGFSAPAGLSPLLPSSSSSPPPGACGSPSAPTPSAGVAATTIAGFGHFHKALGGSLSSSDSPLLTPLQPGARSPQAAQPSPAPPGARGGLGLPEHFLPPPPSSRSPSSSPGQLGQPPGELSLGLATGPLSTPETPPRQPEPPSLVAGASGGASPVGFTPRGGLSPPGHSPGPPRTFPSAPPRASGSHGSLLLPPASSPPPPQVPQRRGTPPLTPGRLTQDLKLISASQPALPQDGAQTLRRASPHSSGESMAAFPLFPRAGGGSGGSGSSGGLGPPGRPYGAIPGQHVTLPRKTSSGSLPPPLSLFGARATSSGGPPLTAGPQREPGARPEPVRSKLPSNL
The experiment can be described thus: Whole-cell patch-clamp, HCN4 steady state currents in transiently transfected CHO cells. The conditions noted are these: CHO cells transiently expressing HCN4, steady state current at -120 mV, n=3; read-out: IC50 (inhibition of HCN4 currents). It is filed as cell-based. The text has this:
The following six compounds in accordance with the invention: • Compound A: [drawing 81] i.e. 4-[5-[3-Chloro-5-(trifluoromethoxy) phenyl]-1-(pyridin-3-yl)-1H-pyrazol-3-yl]-5,6-dihydro-7H-pyrrolo[3,4-d]pyrimidin-7-one, • Compound B: [drawing 82] i.e. 4-[5-[3-Chloro-5-(trifluoromethoxy) phenyl]-1-(pyridin-3-yl)-1H-pyrazol-3-yl]-2,3-dihydro-1H-pyrrolo[3,4-c] pyridin-1-one, • Compound C: [drawing 83] i.e. 4-[5-[3-Chloro-5-(trifluoromethoxy) phenyl]-1-(pyridin-3-yl)-1H-pyrazol-3-yl]-5,6-dihydro-2-methyl-7H-pyrrolo[3, 4-d] pyrimidin-7-one, • Compound D: [drawing 84] i.e. 3-Amino-4-[5-[3-chloro-5-(trifluoromethoxy) phenyl]-1-(pyridin-3-yl)-1H-pyrazol-3-yl-carbonyl]-1,5-dihydro-2H-pyrrol-2-one, • Compound E: [drawing 85] i.e. 1-[[5-[3-Chloro-5-(trifluoromethoxy) phenyl]-1-(pyridin-3-yl)-1H-pyrazol-3-yl]carbonyl]-imidazolidin-4-one, • Compound F: [drawing 86] i.e. 4-[5-[3-Chloro-5-(trifluoromethoxy) phenyl]-1-(3-cyano-4-fluoro-phenyl)-1H-pyrazol-3-yl]-5,6-dihydro-7H-pyrrolo[3,4-d]pyrimidin-7-one, were tested on their effects on human HCN4 currents recorded from transiently transfected CHO cells, in direct comparison to the reference compounds described below: • Ivabradine: [drawing 87] i.e. ((S)-3-{3-[([3,4-Dimethoxy-bicyclo [4.2.0]octa-1,3,5-trien-7-yl]methyl)methylamino]propyl}-1,3,4,5-tetrahydro-7,8-dimethoxy-2H-3-benzazepin-2-on), • Compound X: [drawing 88] i.e. 1-[[1-(3-Chloro-4-fluorophenyl)-5-(3-chloro-5-fluorophenyl)-1 H-pyrazol-3-yl]carbonyl]-imidazolidin-4-one, • Compound Y: [drawing 89] i.e. N-(2-Amino-2-oxoethyl)-1-(3-chloro-4-fluorophenyl)-5-(3-chloro-5-fluorophenyl)-1H-pyrazole-3-carboxamide.
The pyrazole compounds X and Y as depicted above, and having structural similarities to the compounds of general formula (I) of the invention, were also tested to investigate whether the pure If current inhibitory effect of the compounds of the invention also extend to structurally closely related compounds.
Dependent on their solubility in the assay buffer, the compounds were tested first at one concentration of 10 µM (compound A, compound Y, compound X, compound B, compound E, compound F and ivabradine) or 1 µM for (compound C and D). If the current blocking of HCN4 at this concentration was higher than 50% the compounds were tested again at five concentrations of a half-logarithmic dilution series starting with either 10 µM or 1 µM as mentioned above (meaning 0.1 µM, 0.3 µM, 1 µM, 3 µM, and 10 µM or 0.01 µM, 0.03 µM 0.1 µM, 0.3 µM and 1 µM).
Test system: CHO cells transiently expressing the HCN4 channel; NCBI Reference Sequence: NP005468.1 (HCN4 channel); Source CHO: ATCC, CCL-61 LGC Standards GmbH, Wesel, Germany were used.
In 35 mm culture dishes CHO cells were seeded at a density allowing single cells to be recorded on the dish holder of the microscope and continuously perfused (at approximately 1 mL/min) with the bath solution described above. All solutions applied to cells including the pipette solution were maintained at room temperature (19 °C - 30 °C). After formation of a Gigaohm seal between the patch electrodes and individual cells (pipette resistance range: 2.0 MΩ - 7.0 MΩ; seal resistance range: > 1 GΩ) the cell membrane across the pipette tip was ruptured to assure electrical access to the cell interior (whole-cell patch-configuration). As soon as a stable seal was established, steady state currents were measured upon the hyperpolarization to -120 mV (2000 ms) from a holding potential of -40 mV. This voltage protocol (as shown in the scheme below) did run 5 times for control conditions and at least ten times for each test concentration. Pulse intervals were 20 s (0.05 Hz). If current amplitude was judged to be too low for measurement, another cell was recorded.
Once control recordings have been accomplished, cells were continuously perfused with bath solution containing the tested compounds as detailed above, 0.1 % DMSO or 100 µM ZD7288. […]

Consider `O=C1NCc2c1ncnc2-c1cc(-c2cc(Cl)cc(OC(F)(F)F)c2)n(-c2cccnc2)n1` [Compound A, 4-[5-[3-Chloro-5-(trifluoromethoxy)phenyl]-1-(pyridin-3-yl)-1H-pyrazol-3-yl]-5,6-dihydro-7H-pyrrolo[3,4-d]pyrimidin-7-one], for which the IC50 lay within 30 to 580 nM.
